Source: patent US20110124719A1, “COMPOSITION FOR PROMOTING PRODUCTION OF HYALURONIC ACID CONTAINING KAEMPFEROL AND QUERCETIN” (Amorepacific Corporation, priority 2004, published 2011)

Columns and labels:
Type in all cases: cell-based, human
HaCaT cells [1] = assay: MTT assay of cytotoxicity in HaCaT cells; conditions: 24 hours
Protocol: In order to examine cytotoxicity of kaempferol and quercetin in HaCaT, which is a skin cell line of human epidermis, according to the concentrations thereof, HaCaT was treated with kaempferol and quercetin in several concentrations and then degrees of cytotoxicity were quantified through a MTT assay.
HaCaT of human keratinocyte cell line, which was spontaneously immortalized, was used and obtained from Dr. N. E. Fusenig (Deutsches Krebsforschungszentrum (DKFZ), Heidelberg, Germany). The cells were cultured in a Dulbecco's modified Eagle's media (DMEM) containing 10% fetal bovine serum (HyClone), sodium bicarbonate 3.6 g/l and antibody (streptomycin 100 μg and penicillin 100 IU/l) (Life Technologies, Inc.) under proper culture conditions (37° C., 5% CO2, 95% air). The medium was replaced every three days and the cells were secondary-cultured in a division ratio of 1:5 as soon as the density thereof reached the highest. 1×10^4 cells per well of a tissue culture flask 96 well plate were aliquot 72 hours before the cells were treated with kaempferol or quercetin, and then cultured in a medium containing 10% fetal bovine serum for 48 hours. Then, the cells were cultured for 24 hours in a serum-free medium, treated with kaempferol and quercetin in concentrations of 0.1 μM, 1 μM and 10 μM, respectively and then cultured for 24 hours. A control group was diluted in a ratio of 1:1,000 and cultured in a medium supplemented with vehicle (dimethylsulfoxide, DMSO).
(§1) A significance was considered, based on p=0.05 and data was shown with mean±standard error.

[2] = test system: hyaluronan synthase 2 (HAS2); assay: Quantitative reverse transcription PCR of HAS2 mRNA in HaCaT cells; conditions: treated 24 hours, expressed in treatment groups as well as the control group
Source text: In order to examine an effect of increasing an expression of a HAS gene by kaempferol and quercetin in HaCaT which is a skin cell line of human epidermis, HaCaT cells were respectively treated with kaempferol and quercetin in several concentrations, then the HAS gene was subject to quantitative reverse transcription PCR so as to examine an expression of the HAS gene in a level of mRNA and thus changes of the HAS genes by kaempferol and quercetin were examined as follows. Human keratinocyte cell line, HaCaT cell, which was spontaneously immortalized, was used and obtained from Dr. N. E. Fusenig (Deutsches Krebsforschungszentrum (DKFZ), Heidelberg, Germany). […] A concentration of RNA was measured with a spectrophotometry method and a quality of RNA was checked with an agarose gel electrophoresis. It was examined through a quantitative reverse transcription PCR kaempferol and quercetin's influences on mRNA synthesis of hyaluronan synthase 1 (NAS1), hyaluronan synthase 2 (HAS2) and hyaluronan synthase 3 (HAS3), which are isoforms of hyaluronic acid synthase, as follows. Firstly, a RNA prepared and quantified in the above experimental example 1-2 was subject to a reverse transcription and then it was performed a quantitative PCR under the presence of primers specific for HAS1, HAS2 and HAS3 which are isoforms of hyaluronic acid synthase. […]

HaCaT cells [3] = assay: HA-ELISA of hyaluronic acid discharged into culture medium of HaCaT cells; conditions: 24 hours
Protocol: Firstly, the cells were cultured in a Dulbecco's modified Eagle's media (DMEM) containing 10% fetal bovine serum (HyClone), sodium bicarbonate 3.6 g/l and antibody (streptomycin 100 μg and penicillin 100 IU/l) (Life Technologies, Inc.) under proper culture conditions (37° C., 5% CO2, 95% air). The medium was replaced every three days and the cells were secondary-cultured in a division ratio of 1:5 as soon as the density thereof reached the highest. 1×10^5 cells per 75 cm^2 of a tissue culture flask were aliquot 72 hours before the cell were treated with kaempferol or quercetin, and then cultured in a medium containing 10% fetal bovine serum for 48 hours. Then, the cells were cultured in a serum-free medium for 24 hours, treated with kaempferol and quercetin in concentrations of […], 1 μM and 10 μM, respectively and then cultured for 24 hours. A control group was diluted in a ratio of 1:1,000 and cultured in a medium supplemented with vehicle (dimethylsulfoxide, DMSO).
In order to examine that a production of hyaluronic acid was actually promoted by kaempferol and quercetin, a culture medium of HaCaT cell, which is a skin cell line of human epidermis was treated with kaempferol and quercetin, in several concentrations. After that, an amount of hyaluronic acid that synthesis of hyaluronic acid is promoted and then the acid is discharged into the medium was quantified using HA-ELISA Kit.
To perform the ELISA, it was purchased a Hyaluronan Enzyme-Linked ImmunoSorbent Assay Kit (HA-ELISA, Product No.: K-1200) available from Echelon company. The medium recovered through the above cell cultivation was subject to the HA-ELISA Kit according to manufacturer's instructions, thereby quantifying the synthesis amount of hyaluronic acid that was synthesized in HaCaT cell by kaempferol and quercetin and then discharged into the medium. The control group was diluted in a ratio of 1:1,000 and then cultured in a medium supplemented with vehicle (dimethylsulfoxide, DMSO).
as §1

[4] = test system: hyaluronan synthase 3 (HAS3); assay: Quantitative reverse transcription PCR of HAS3 mRNA in HaCaT cells; conditions: 24 hours
Source text: In order to examine an effect of increasing an expression of a HAS gene by kaempferol and quercetin in HaCaT which is a skin cell line of human epidermis, HaCaT cells were respectively treated with kaempferol and quercetin in several concentrations, then the HAS gene was subject to quantitative reverse transcription PCR so as to examine an expression of the HAS gene in a level of mRNA and thus changes of the HAS genes by kaempferol and quercetin were examined as follows. Human keratinocyte cell line, HaCaT cell, which was spontaneously immortalized, was used and obtained from Dr. N. E. Fusenig (Deutsches Krebsforschungszentrum (DKFZ), Heidelberg, Germany). Firstly, the cells were cultured in a Dulbecco's modified Eagle's media (DMEM) containing 10% fetal bovine serum (HyClone), sodium bicarbonate 3.6 g/l and antibody (streptomycin 100 μg and penicillin 100 IU/l) (Life Technologies, Inc.) under proper culture conditions (37° C., 5% CO2, 95% air). […] A control group was diluted in a ratio of 1:1,000 and cultured in a medium supplemented with vehicle (dimethylsulfoxide, DMSO). It was not observed any effects of DMSO influencing on growth and differentiation in the control group culture. The HaCaT cells cultured in the experimental example 1-1 were cleaned two times with a phosphate-buffered saline (Life Technologies, Inc.) and RNAs of all cells were separated using a trizol reagent (GibcoBRL Life Technologies, Grand Island, N.Y.) according to manufacturer's instructions. A concentration of RNA was measured with a spectrophotometry method and a quality of RNA was checked with an agarose gel electrophoresis. It was examined through a quantitative reverse transcription PCR kaempferol and quercetin's influences on mRNA synthesis of hyaluronan synthase 1 (NAS1), hyaluronan synthase 2 (HAS2) and hyaluronan synthase 3 (HAS3), which are isoforms of hyaluronic acid synthase, as follows. Firstly, a RNA prepared and quantified in the above experimental example 1-2 was subject to a reverse transcription and then it was performed a quantitative PCR under the presence of primers specific for HAS1, HAS2 and HAS3 which are isoforms of hyaluronic acid synthase. […]

SMILES | cytotoxicity compared to the control group (MTT) (HaCaT cells [1]; 0.1 μM) | cytotoxicity compared to the control group (MTT) (HaCaT cells [1]; 1 μM) | cytotoxicity compared to the control group (MTT) (HaCaT cells [1]; 10 μM) | expression of HAS2 hyaluronic acid synthase gene (mRNA) [2] | increase of hyaluronic acid synthesis compared to the control group (HaCaT cells [3]; 1 μM) [%] | increase of hyaluronic acid synthesis compared to the control group (HaCaT cells [3]; 10 μM) [%] | HAS3 mRNA expression compared to the control group ([4]; 1 μM) | HAS3 mRNA expression compared to the control group ([4]; 10 μM)
O=c1c(O)c(-c2ccc(O)cc2)oc2cc(O)cc(O)c12 [kaempferol, Kaempferol] | did not exhibit cytotoxicity | did not exhibit cytotoxicity | did not exhibit cytotoxicity | expressed | 7 | 8 | increased | increased
O=c1c(O)c(-c2ccc(O)c(O)c2)oc2cc(O)cc(O)c12 [quercetin] | did not exhibit cytotoxicity | did not exhibit cytotoxicity | did not exhibit cytotoxicity | expressed | 11 | 24 | increased | increased
